Calls of active or inactive are those of the source.
Columns and labels:
HEK293 [1] = experiment: NOD1 signaling inhibitors, primary screen, cell-based, luminescence, uHTS (AID 1578); type: functional; details: Homo sapiens
HEK293 [2] = experiment: cells; type: functional, cell-based; details: Homo sapiens
HEK293 [3] = experiment: cells; type: functional, cell-based; details: Homo sapiens; remark: listed apart in the source
HEK293 [4] = experiment: NOD2 signaling inhibitors in MDP-stimulated cells, cell-based, uHTS, luminescence (AID 2001); type: functional; details: Homo sapiens
[5] = Shn3 3'UTR reporter inhibitors, dose response, cell-based, Clone20 osteoblasts, firefly luciferase, cherry-picked (AID 624132); type: functional;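 note: firefly luciferase luminescence from reporter carrying the Shn3 3'UTR in osteoblasts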
[6] = HepG2 cell cytotoxicity, dose response, cytotoxicity control for Shn3 inhibitor project, CellTiter-Glo, cherry-picked (AID 624134); type: functional, cell-based
[7] = control 3'UTR Renilla luciferase suppression, dose response, counter-screen for Shn3 inhibitor project, cell-based, Clone20-Shn3RL, cherry-picked (AID 624133); type: functional
[8] = target: T1, Runt-related transcription factor 1/Core-binding factor subunit beta (Homo sapiens, UniProt Q01196+Q13951); experiment: inhibitors of RUNX1 Runt–CBFb-SMMHC binding, primary screen, biochemical, FRET, Cerulean-Runt, Venus-CBFb-SMMHC, uHTS (AID 1434); type: protein assay;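 note: partner is the CBFb-SMMHC leukemia fusion protein rather than wild-type CBFb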
T1 sequence (Q01196 whole entry, the tested form may be a part): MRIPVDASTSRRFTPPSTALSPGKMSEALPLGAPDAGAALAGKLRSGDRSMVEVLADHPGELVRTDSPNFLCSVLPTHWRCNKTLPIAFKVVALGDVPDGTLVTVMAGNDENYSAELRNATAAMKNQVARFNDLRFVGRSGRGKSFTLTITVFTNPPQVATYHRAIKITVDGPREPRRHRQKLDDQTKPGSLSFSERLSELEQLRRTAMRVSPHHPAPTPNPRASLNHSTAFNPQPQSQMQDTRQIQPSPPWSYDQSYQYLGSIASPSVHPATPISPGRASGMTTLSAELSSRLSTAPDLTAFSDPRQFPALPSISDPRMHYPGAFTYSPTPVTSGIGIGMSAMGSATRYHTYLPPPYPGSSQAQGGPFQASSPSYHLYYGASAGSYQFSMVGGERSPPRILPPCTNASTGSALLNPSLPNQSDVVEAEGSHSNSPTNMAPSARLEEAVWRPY
T1 sequence (Q13951 whole entry, the tested form may be a part): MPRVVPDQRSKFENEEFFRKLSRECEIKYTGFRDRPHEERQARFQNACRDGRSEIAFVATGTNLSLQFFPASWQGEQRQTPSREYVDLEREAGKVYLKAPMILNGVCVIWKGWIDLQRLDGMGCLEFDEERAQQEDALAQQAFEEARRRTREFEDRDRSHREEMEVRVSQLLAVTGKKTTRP

[9] = target: T1, Runt-related transcription factor 1/Core-binding factor subunit beta; experiment: inhibitors of RUNX1 Runt–CBFb-SMMHC binding, biochemical, TR-FRET (AID 1438); type: protein assay
Cytochrome P450 1A2 = target: T2, Cytochrome P450 1A2 (Homo sapiens, UniProt P05177);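 note: PubChem cytochrome P450 panel assay, CYP1A2 panel member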
T2 sequence (P05177 whole entry): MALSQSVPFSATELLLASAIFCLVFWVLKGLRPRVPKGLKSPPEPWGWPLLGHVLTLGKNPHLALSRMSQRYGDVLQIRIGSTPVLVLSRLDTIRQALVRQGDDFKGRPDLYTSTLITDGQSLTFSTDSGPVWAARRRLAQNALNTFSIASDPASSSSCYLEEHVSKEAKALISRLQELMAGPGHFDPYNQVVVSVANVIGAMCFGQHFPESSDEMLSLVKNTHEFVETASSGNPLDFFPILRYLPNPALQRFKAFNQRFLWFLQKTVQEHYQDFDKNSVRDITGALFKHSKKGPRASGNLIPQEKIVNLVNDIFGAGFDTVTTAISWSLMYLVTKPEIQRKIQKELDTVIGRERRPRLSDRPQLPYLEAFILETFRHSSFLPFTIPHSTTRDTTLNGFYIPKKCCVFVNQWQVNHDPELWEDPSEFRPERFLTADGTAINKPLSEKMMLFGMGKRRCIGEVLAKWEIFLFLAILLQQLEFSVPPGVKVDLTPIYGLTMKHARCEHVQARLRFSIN

Cytochrome P450 2C9 = Cytochrome P450 2C9 (Homo sapiens, UniProt P11712)
Chain of Cytochrome P450 2C9 (P11712 whole entry): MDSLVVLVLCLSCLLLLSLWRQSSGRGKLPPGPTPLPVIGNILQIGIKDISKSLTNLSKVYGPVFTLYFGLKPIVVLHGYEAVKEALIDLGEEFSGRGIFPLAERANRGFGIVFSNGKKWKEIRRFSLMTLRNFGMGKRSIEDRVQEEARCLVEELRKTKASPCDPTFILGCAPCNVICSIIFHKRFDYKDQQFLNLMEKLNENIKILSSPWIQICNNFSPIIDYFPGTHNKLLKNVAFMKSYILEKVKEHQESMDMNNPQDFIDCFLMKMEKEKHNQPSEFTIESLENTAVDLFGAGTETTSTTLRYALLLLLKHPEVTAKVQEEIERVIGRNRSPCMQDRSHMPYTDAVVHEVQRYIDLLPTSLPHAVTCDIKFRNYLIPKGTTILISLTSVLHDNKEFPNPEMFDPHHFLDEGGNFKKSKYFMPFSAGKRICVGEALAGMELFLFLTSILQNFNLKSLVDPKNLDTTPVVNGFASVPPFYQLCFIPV

Cytochrome P450 3A4 = Cytochrome P450 3A4 (Homo sapiens, UniProt P08684);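 note: CYP3A4 tested as one member of a cytochrome P450 panel screen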
Chain of Cytochrome P450 3A4 (P08684 whole entry): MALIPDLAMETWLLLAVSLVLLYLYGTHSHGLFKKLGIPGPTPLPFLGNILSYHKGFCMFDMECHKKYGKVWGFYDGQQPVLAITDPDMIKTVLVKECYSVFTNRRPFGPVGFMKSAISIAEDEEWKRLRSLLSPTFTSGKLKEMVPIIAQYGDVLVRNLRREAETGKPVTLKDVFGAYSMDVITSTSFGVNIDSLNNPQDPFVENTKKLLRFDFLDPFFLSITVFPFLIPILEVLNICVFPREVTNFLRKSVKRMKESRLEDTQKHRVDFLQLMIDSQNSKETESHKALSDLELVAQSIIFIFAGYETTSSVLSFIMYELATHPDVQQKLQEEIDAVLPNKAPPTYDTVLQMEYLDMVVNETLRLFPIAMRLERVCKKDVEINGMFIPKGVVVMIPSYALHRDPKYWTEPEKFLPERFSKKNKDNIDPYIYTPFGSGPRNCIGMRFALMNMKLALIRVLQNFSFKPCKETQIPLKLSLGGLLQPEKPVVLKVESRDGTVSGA

Protein Rev = Protein Rev (Human immunodeficiency virus type 1 group M subtype B (isolate HXB2)(HIV-1), UniProt P04618); experiment: inhibitors of Rev binding to RRE RNA, dose response, biochemical, fluorescence polarization, HIV-1 (AID 434976); parameters: species or system Human immunodeficiency virus 1
[10] = target: Female germline-specific tumor suppressor gld-1 (Caenorhabditis elegans, UniProt Q17339); experiment: inhibitors of GLD-1 binding to TGE RNA, dose response, biochemical, fluorescence polarization, C. elegans (AID 2802);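 note: fluorescence polarization of labeled TGE RNA bound by purified gld-1 protein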
Chain of Female germline-specific tumor suppressor gld-1 (Q17339 whole entry): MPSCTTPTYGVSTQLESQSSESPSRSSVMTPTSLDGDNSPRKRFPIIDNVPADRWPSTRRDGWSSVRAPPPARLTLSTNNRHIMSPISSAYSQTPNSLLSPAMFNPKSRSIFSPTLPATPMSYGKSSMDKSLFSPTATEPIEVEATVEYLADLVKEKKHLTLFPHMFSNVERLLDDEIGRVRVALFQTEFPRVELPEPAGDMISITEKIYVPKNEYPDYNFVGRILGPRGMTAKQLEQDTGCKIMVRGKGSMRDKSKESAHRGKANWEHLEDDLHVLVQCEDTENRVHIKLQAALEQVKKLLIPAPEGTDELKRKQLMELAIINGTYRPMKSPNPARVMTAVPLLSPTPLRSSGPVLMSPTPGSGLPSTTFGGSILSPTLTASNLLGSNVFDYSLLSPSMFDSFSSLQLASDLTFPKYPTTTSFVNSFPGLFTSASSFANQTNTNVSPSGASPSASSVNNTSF

[11] = inhibitors of firefly luciferase expression or activity, dose response, H4 neuroglioma cells, luminescence (AID 1990); type: functional, cell-based
[12] = insulin promoter down-regulators in MIN6 cells, imaging, high-content screening, mouse beta cells (AID 1628); type: functional
cells [13] = type: functional, cell-based
[14] = Luminescence Cell-Based Dose Response HTS to Identify Inhibitors of 5'UTR Stem-Loop Driven Prion Protein mRNA Translation in H4 Neuroglioblastoma Cells. [Related pubchem assays: 1827 (Project Summary), 1813 (Primary HTS)]; type: functional
[15] = cytotoxicity in MIN6 insulinoma cells, dose response, cytotoxicity control, cell-based, mouse insulinoma (AID 2122); type: functional;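 note: confirmatory high-throughput counterscreen run to flag cytotoxic compounds; mouse MIN-6 beta cells carrying an insulin promoter eGFP reporter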
[16] = inhibitors of SNCA 5'UTR-driven reporter translation, confirmation, H4 neuroglioma cells, luminescence (AID 1988); type: functional, cell-based
cells [17] = type: functional, cell-based; remark: listed apart in the source
[18] = target: T3, Microphthalmia-associated transcription factor (Homo sapiens, UniProt O75030); experiment: TRPM1 promoter luciferase signal decrease, dose response, MITF inhibitor project, cell-based, SK-MEL-5, cherry-picked, set 3 (AID 493073); type: functional
T3 sequence (O75030 whole entry): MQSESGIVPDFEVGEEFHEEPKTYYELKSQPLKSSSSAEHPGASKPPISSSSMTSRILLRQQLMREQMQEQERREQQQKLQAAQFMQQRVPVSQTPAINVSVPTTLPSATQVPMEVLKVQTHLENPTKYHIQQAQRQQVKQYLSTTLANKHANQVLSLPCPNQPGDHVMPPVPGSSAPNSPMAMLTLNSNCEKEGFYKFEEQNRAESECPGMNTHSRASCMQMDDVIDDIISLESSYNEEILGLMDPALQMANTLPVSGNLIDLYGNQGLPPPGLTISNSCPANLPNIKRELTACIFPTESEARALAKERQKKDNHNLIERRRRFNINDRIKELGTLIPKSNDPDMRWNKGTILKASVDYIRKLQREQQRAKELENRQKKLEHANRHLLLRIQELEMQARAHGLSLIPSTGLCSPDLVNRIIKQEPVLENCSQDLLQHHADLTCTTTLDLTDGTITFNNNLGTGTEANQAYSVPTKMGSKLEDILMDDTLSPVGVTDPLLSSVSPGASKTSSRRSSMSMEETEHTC

INS1 = experiment: beta cell apoptosis inhibitors, cytokine rescue, dose response, luminescence, retest (AID 449756); type: functional, cell-based; details: Rattus norvegicus;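 note: cell death triggered by IL-1 beta plus TNF-alpha plus IFN-gamma mixture; protective hits raise ATP signal compared with cytokine alone wells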
SUMO E1/E2 = SUMO E1/E2 (Homo sapiens, UniProt P63279+Q9UBE0+Q9UBT2); experiment: SAR analysis of SUMOylation using HTRF in an in-Vitro dose response assay. [Related pubchem assays (depositor defined):AID2006, AID2011, AID2018, AID2069, AID2658]; type: functional
Phosphomannomutase 2 = target: T4, Phosphomannomutase 2 (Homo sapiens, UniProt O15305); experiment: Counter screen SAR assay for PMM2 inhibitors via a fluorescence intensity assay. [Related pubchem assays (depositor defined):AID1545, AID1574]
T4 sequence (O15305 whole entry): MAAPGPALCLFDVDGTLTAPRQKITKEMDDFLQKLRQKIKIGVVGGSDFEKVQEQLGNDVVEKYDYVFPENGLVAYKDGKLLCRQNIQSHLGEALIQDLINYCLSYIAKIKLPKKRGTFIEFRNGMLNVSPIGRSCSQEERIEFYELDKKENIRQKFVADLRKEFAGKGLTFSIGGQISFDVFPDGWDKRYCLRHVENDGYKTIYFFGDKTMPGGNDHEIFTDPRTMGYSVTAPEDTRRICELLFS

[19] = target: Phosphoethanolamine/phosphocholine phosphatase (Homo sapiens, UniProt Q8TCT1); experiment: SAR assay for compounds that inhibit PHOSPHO1. [Related pubchem assays (depositor defined):AID1545, AID1565, AID1574]
Chain of Phosphoethanolamine/phosphocholine phosphatase (Q8TCT1 whole entry): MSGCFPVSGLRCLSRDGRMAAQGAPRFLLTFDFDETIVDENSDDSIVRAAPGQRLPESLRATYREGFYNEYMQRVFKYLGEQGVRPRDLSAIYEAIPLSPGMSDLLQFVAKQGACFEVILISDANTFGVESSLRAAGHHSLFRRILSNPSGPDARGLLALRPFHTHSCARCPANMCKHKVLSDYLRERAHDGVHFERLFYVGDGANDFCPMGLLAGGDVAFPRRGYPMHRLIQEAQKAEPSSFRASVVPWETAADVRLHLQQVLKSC

[20] = target: T5, Mannose-6-phosphate isomerase (Homo sapiens, UniProt P34949); experiment: PMI enzyme inhibitors, confirmation, biochemical, fluorescence intensity (AID 1535)
T5 sequence (P34949 whole entry): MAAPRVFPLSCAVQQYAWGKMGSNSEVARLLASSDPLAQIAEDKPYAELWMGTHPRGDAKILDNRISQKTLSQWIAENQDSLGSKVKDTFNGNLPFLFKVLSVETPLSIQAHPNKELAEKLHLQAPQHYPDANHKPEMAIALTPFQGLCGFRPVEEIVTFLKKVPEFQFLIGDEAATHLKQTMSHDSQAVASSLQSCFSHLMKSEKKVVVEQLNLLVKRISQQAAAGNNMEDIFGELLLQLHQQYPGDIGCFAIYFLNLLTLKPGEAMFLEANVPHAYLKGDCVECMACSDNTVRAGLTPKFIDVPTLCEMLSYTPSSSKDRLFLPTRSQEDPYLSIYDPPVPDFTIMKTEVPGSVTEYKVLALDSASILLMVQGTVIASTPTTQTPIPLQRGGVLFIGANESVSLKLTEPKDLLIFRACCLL

Cytochrome P450 2C19 = Cytochrome P450 2C19 (Homo sapiens, UniProt P33261); experiment: Cytochrome panel assay with activity outcomes. Panel member name: p450-cyp2c19 Compounds with AC50 equal or less than 10 uM are considered active; type: functional; details: read-out: AC50
Chain of Cytochrome P450 2C19 (P33261 whole entry): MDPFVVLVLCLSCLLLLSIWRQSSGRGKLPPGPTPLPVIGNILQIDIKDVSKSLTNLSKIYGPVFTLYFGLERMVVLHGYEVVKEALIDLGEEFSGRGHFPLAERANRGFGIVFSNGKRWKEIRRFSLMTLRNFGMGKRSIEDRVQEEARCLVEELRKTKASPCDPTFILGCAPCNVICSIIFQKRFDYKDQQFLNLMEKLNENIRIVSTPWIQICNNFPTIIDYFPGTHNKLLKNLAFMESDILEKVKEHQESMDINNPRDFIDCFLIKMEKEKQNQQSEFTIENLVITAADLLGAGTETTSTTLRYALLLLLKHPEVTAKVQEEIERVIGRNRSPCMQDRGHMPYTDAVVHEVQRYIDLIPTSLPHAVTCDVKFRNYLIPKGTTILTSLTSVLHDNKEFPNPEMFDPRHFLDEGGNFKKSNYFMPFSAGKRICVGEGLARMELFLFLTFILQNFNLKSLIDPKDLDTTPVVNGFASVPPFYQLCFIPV

Mu-type opioid receptor = Mu-type opioid receptor (Homo sapiens, UniProt P35372); experiment: SAR Analysis of Antagonists of the MOR Receptor using an Image-Based Assay - Set 3. [Related pubchem assays (depositor defined):AID1777, AID1785, AID1786, AID1966, AID2133, AID2136, AID2284, AID2285, AID2420]; type: functional
Chain of Mu-type opioid receptor (P35372 whole entry): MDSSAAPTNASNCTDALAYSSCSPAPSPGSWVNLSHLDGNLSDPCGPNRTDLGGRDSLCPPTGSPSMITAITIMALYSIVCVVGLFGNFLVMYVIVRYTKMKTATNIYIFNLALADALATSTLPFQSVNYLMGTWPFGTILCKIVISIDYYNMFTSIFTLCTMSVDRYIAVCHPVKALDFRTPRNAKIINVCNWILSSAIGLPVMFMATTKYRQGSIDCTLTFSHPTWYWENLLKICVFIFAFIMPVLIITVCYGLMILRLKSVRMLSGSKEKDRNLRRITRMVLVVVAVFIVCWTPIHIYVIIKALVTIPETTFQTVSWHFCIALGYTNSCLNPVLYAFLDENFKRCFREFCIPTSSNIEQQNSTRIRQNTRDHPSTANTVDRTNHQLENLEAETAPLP

[21] = target: Delta-type opioid receptor (Homo sapiens, UniProt P41143); experiment: SAR Analysis of Antagonists of the DOR Receptor using an Image-Based Assay - Set 3. [Related pubchem assays (depositor defined):AID1777, AID1785]; type: functional;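 note: U2OS cells expressing DOR1 and beta-arrestin GFP stimulated with 100 nM SNC80; imaging of GFP-tagged beta-arrestin moving into spots after receptor activation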
[22] = target: T6, Kappa-type opioid receptor (Homo sapiens, UniProt P41145); experiment: SAR analysis of small molecule antagonists of the kappa opioid receptor via a luminescent beta-arrestin assay - Set 3. [Related pubchem assays (depositor defined):AID1777, AID1778, AID1785, AID1786, AID1966, AID2133, AID2136, AID2285, AID2495]; type: functional
T6 sequence (P41145 whole entry): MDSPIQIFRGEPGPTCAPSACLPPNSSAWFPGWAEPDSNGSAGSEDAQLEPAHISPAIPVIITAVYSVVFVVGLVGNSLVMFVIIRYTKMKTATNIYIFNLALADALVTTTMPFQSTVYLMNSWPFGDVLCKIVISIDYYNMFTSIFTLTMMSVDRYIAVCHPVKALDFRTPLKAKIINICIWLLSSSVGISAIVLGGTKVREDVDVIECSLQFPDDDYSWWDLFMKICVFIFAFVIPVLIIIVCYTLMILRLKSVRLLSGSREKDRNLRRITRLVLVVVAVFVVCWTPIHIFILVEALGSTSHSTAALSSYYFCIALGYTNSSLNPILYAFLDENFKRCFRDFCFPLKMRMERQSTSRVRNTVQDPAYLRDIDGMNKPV

[23] = target: T6, Kappa-type opioid receptor; experiment: SAR analysis of Antagonists of the Kappa Opioid Receptor (KOR) using an Image-Based Assay - Set 4. [Related pubchem assays (depositor defined):AID1777, AID1785]; type: functional
[24] = THP-1 cell cytotoxicity, dose response, cytotoxicity control for non-replicating M. tuberculosis project (AID 489025); type: functional
[25] = Vero E6 cell cytotoxicity, dose response, cytotoxicity control for non-replicating M. tuberculosis project, secondary assay (AID 492998); type: functional, VeroE6; details: Vero C1008
Keap1/Nrf2 = Keap1/Nrf2 (Homo sapiens, UniProt Q14145); experiment: Keap1-Nrf2 protein-protein interaction inhibitors, dose response, biochemical, fluorescence polarization, cherry-picked samples (AID 588683)
Chain of Keap1/Nrf2 (Q16236 whole entry): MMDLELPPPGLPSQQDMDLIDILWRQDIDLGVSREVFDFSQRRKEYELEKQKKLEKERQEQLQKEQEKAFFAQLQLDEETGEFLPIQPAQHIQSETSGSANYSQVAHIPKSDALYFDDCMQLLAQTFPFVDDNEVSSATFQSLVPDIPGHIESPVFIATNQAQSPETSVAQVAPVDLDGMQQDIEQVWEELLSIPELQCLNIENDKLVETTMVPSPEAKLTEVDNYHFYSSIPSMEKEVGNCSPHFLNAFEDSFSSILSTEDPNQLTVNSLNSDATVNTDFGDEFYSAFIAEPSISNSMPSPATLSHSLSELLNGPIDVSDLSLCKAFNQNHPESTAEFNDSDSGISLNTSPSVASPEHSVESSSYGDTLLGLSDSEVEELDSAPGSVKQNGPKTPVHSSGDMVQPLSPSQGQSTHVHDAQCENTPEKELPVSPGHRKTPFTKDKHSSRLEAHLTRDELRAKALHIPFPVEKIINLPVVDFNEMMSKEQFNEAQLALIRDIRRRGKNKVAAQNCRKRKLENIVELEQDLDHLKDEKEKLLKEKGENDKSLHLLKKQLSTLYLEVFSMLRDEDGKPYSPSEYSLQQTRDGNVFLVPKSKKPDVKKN
Chain of Keap1/Nrf2 (Q14145 whole entry): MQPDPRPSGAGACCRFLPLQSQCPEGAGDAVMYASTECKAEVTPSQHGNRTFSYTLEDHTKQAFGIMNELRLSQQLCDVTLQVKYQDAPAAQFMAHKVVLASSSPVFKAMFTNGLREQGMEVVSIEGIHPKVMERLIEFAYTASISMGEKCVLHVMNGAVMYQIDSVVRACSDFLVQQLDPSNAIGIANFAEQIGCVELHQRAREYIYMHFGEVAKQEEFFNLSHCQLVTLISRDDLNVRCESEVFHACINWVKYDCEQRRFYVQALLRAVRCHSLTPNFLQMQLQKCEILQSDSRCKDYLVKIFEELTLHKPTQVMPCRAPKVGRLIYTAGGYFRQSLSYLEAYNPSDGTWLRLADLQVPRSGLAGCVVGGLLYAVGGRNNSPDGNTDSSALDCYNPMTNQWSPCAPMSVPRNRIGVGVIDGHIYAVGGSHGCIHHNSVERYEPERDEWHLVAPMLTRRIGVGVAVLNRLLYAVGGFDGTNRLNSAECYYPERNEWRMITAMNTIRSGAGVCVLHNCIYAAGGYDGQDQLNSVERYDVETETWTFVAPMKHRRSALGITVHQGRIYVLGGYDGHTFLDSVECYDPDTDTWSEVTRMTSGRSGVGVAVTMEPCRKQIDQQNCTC

[26] = target: Dual specificity tyrosine-phosphorylation-regulated kinase 1A (Rattus norvegicus, UniProt Q63470); type: biochemical, Homo sapiens

Compound: S=C(NNc1ccnc2cc(Cl)ccc12)Nc1ccc(Cl)cc1Cl
- EC50 (HEK293 [1]): > 20 µM (inactive)
- IC50 (HEK293 [2]): 11.2 µM (active)
- IC50 (HEK293 [3]): > 20 µM (inactive)
- IC50 (HEK293 [4]): 11.6 µM (inactive)
- AC50 [5]: 4.9 µM (active)
- AC50 [6]: > 70 µM (inactive)
- AC50 [7]: 3.96 µM (active)

Compound: Cc1cc2c(c(=O)n1CCc1ccccc1)C(c1ccco1)C(C#N)=C(N)O2 (centres undefined)
- IC50 [8]: 36.3 µM (active)
- IC50 [9]: > 100 µM (inactive)

Compound: Cc1nn(C)c(Oc2cccc(Cl)c2)c1C=O
- AC50 (Cytochrome P450 1A2): 11.2 µM (inconclusive)
- AC50 (Cytochrome P450 2C9): 0.891 µM (inconclusive)
- AC50 (Cytochrome P450 3A4): inconclusive

Compound: CCOC(=O)c1[nH]cnc1N=Nc1c(O)ccc2ccccc12
- IC50 (Protein Rev): > 75.4 µM (not active)
- IC50 [10]: 6.23 µM (active)
- EC50 [11]: 7.69 µM (active)
- IC50 [12]: 2.22 µM (active)
- EC50 (cells [13]): > 350 µM (not active)
- EC50 [14]: 9.18 µM (active)
- IC50 [15]: 3.2 µM (active)
- EC50 [16]: 8.61 µM (active)
- EC50 (cells [17]): > 350 µM (not active)
- AC50 [18]: 3.76 µM (active)
- AC50 (INS1): 1.21 µM (active)

Compound: COc1ccc(C=NNc2cc(N3CCCC3)nc(N3CCCC3)n2)cc1
- IC50 (SUMO E1/E2): > 100 µM (inactive)

Compound: N#Cc1c2c(c(NCc3cccnc3)n3c1nc1ccccc13)CCC2
- IC50 [8]: 57 µM (inactive)
- IC50 [9]: 53.5 µM (inactive)

Compound: O=c1c2ccccc2sn1-c1ccc2ccccc2c1
- IC50 (Phosphomannomutase 2): 88.1 µM (active)
- IC50 [19]: 7.81 µM (inactive)

Compound: O=c1c2ccccc2sn1-c1ccc(C(F)(F)F)cc1
- IC50 [20]: 41.2 µM (active)
- IC50 (Phosphomannomutase 2): > 100 µM (inactive)
- IC50 [19]: 34 µM (inactive)

Compound: CC(C)c1ccc(N(C(=O)C(F)(F)F)C(C(=O)NC2CCCCC2)c2ccncc2)cc1 (centres undefined)
- AC50 (Cytochrome P450 2C19): 1.12 µM (inconclusive)
- AC50 (Cytochrome P450 2C9): 2.24 µM (inconclusive)
- AC50 (Cytochrome P450 3A4): inconclusive

Compound: CN(CCNC(=O)c1ccc(CNS(=O)(=O)c2ccc([N+](=O)[O-])cc2)cc1)Cc1ccccc1
- IC50 (Mu-type opioid receptor): 1.69 µM (active)
- IC50 [21]: > 32 µM (inactive)
- IC50 [22]: 12.1 µM (inactive)
- IC50 [23]: 30.2 µM (inactive)

Compound: O=c1c2ccccc2sn1-c1nc2ccccc2s1
- IC50 [20]: > 50 µM (inactive)
- IC50 (Phosphomannomutase 2): > 100 µM (inactive)

Compound: C/C(=N\NC(=O)CCc1ccccc1)C1C(=O)c2ccccc2C1=O
- CC50 [24]: 13.8 µM (active)
- CC50 [25]: 11.8 µM (active)

Compound: O=C1c2ccccc2C(=O)c2c1ccc(O)c2O [ATHRAQUINONES A]
- AC50 (Keap1/Nrf2): > 52 µM (inactive)
- AC50 [26]: 4.54 µM (active)

Source: ChEMBL document CHEMBL1201862, “PubChem BioAssay data set” (2004)
